How the values were obtained:
hyperuricemia mice [1] = experiment: Serum uric acid level in potassium oxonate + hypoxanthine hyperuricemia mice; type: in vivo, Kunming mice; conditions: 7 days, normal 196, model 313 μmol/L
Method: (§1) Except for the normal control group by intraperitoneal injection and intragastric administration of distilled water, the other groups were intraperitoneally injected with oxazine potassium salt at a dose of 100 mg/kg/d, and simultaneously intragastrically with a dose of 600 mg/kg/d hypoxanthine for modeling. […] Low, middle, and high-dose Agrocybe aegerita water extract administration group (Agrocybe aegerita water extract, AAW) were respectively 50, 100, 200 mg/kg concentration of the Agrocybe aegerita water extract prepared in Example 2 100 mg/kg/d for intragastric administration. […] The blood samples were separated and the serum was stored at −20° C. The organs of the mice were removed, including the liver, spleen, and kidneys, and washed with physiological saline solution. Then blot it dry with an ordinary filter and weigh it. […] (8) Statistical analysis is performed using the professional data processing program SPSS (Release 11.5, SPSS Inc., 2001). All data are expressed as mean±standard error (S.D.) and analyzed by one-way analysis of variance (ANOVA), and group means were compared by two-tailed Student's t test. Differences with statistical significance (P<0.05 or P<0.01) are indicated by the following symbols: There is a differences from the normal control group: *P<0.05, **P<0.01. […]

hyperuricemia mice [2] = experiment: Urine uric acid level in hyperuricemia mice; type: in vivo, Kunming mice; conditions: normal 605, model 293 μmol/L
Method: as §1

hyperuricemia mice [3] = experiment: Serum urea nitrogen (BUN) level, renal function of hyperuricemia mice; type: in vivo, Kunming mice; conditions: allopurinol group; normal 4.47, model 5.96 mmol/L
Method: as §1

[4] = Body weight change of mice; type: in vivo, Kunming mice; conditions: compared with normal group, 7 days, all doses
Method: Except for the normal control group by intraperitoneal injection and intragastric administration of distilled water, the other groups were intraperitoneally injected with oxazine potassium salt at a dose of 100 mg/kg/d, and simultaneously intragastrically with a dose of 600 mg/kg/d hypoxanthine for modeling. […] Low, middle, and high-dose Agrocybe aegerita water extract administration group (Agrocybe aegerita water extract, AAW) were respectively 50, 100, 200 mg/kg concentration of the Agrocybe aegerita water extract prepared in Example 2 100 mg/kg/d for intragastric administration. […] (8) Statistical analysis is performed using the professional data processing program SPSS (Release 11.5, SPSS Inc., 2001). All data are expressed as mean±standard error (S.D.) and analyzed by one-way analysis of variance (ANOVA), and group means were compared by two-tailed Student's t test. Differences with statistical significance (P<0.05 or P<0.01) are indicated by the following symbols: There is a differences from the normal control group: *P<0.05, **P<0.01. There is a difference between the control and PO and HX-induced hyperuricemia model group, #P<0.05, ##P<0.01.

hyperuricemia mice [5] = experiment: Liver coefficient of mice; type: in vivo, Kunming mice; conditions: all treatment groups
Method: (§2) Except for the normal control group by intraperitoneal injection and intragastric administration of distilled water, the other groups were intraperitoneally injected with oxazine potassium salt at a dose of 100 mg/kg/d, and simultaneously intragastrically with a dose of 600 mg/kg/d hypoxanthine for modeling. […] Low, middle, and high-dose Agrocybe aegerita water extract administration group (Agrocybe aegerita water extract, AAW) were respectively 50, 100, 200 mg/kg concentration of the Agrocybe aegerita water extract prepared in Example 2 100 mg/kg/d for intragastric administration. […] The blood samples were separated and the serum was stored at −20° C. The organs of the mice were removed, including the liver, spleen, and kidneys, and washed with physiological saline solution. Then blot it dry with an ordinary filter and weigh it. […] The supernatant was retained for XOD activity analysis and Western blot analysis. (8) Statistical analysis is performed using the professional data processing program SPSS (Release 11.5, SPSS Inc., 2001). All data are expressed as mean±standard error (S.D.) and analyzed by one-way analysis of variance (ANOVA), and group means were compared by two-tailed Student's t test. Differences with statistical significance (P<0.05 or P<0.01) are indicated by the following symbols: There is a differences from the normal control group: *P<0.05, **P<0.01. […]

hyperuricemia mice [6] = experiment: Kidney (renal) coefficient and kidney observation of mice; type: in vivo, Kunming mice
Method: as §2

URAT1 = URAT1 expression in mouse kidney by ELISA kit; type: in vivo; conditions: allopurinol group; normal 96.95, model 104.85 pg/mL
Method: (§3) Except for the normal control group by intraperitoneal injection and intragastric administration of distilled water, the other groups were intraperitoneally injected with oxazine potassium salt at a dose of 100 mg/kg/d, and simultaneously intragastrically with a dose of 600 mg/kg/d hypoxanthine for modeling. […] Low, middle, and high-dose Agrocybe aegerita water extract administration group (Agrocybe aegerita water extract, AAW) were respectively 50, 100, 200 mg/kg concentration of the Agrocybe aegerita water extract prepared in Example 2 100 mg/kg/d for intragastric administration. The normal control group and the hyperuricemia model control group were gavage with the same volume of pure water for 7 consecutive days, and in the 1, 3, 5, and 7 days to weigh the mice.
(4) Take the organs obtained in step (2) and calculate the organ coefficients (liver coefficient, spleen coefficient and kidney coefficient) by dividing […]. […]
(§4) (8) Statistical analysis is performed using the professional data processing program SPSS (Release 11.5, SPSS Inc., 2001). All data are expressed as mean±standard error (S.D.) and analyzed by one-way analysis of variance (ANOVA), and group means were compared by two-tailed Student's t test. […]

[7] = test system: OAT1 (organic anion transporter 1); experiment: Western blot of kidney samples, OAT1 protein expression; type: in vivo, mouse; conditions: compared with the model group, each dose group
Method: as §3, with “mice. […]” for “mice.”
(7) Western blot analysis of kidney samples. Using GAPDH (glyceraldehyde-3-phosphate dehydrogenase) as an internal control, the expression of proteins including URAT1 (urate transporter 1) and OAT1 (organic anion transporter 1) were detected.
as §4

Structure (SMILES)	blood uric acid of hyperuricemia mice (hyperuricemia mice [1]; 5 mg/kg intragastric)	urine uric acid level (hyperuricemia mice [2]; allopurinol group (5 mg/kg per method))	serum BUN (hyperuricemia mice [3])	effect on body weight [4]	liver coefficient, effect on liver function (hyperuricemia mice [5])	renal coefficient (hyperuricemia mice [6]; allopurinol group, normal 1.25%)	kidney observation (hyperuricemia mice [6]; not observed in other groups)	URAT1 protein expression level (ELISA, kidney) (URAT1)	blood uric acid of hyperuricemia mice (hyperuricemia mice [1]; 7.8 mg/kg intragastric)	urine uric acid level (hyperuricemia mice [2]; 7.8 mg/kg)	OAT1 protein expression (Western blot, gray analysis) [7]
Oc1ncnc2[nH]ncc12 [allopurinol]	105 µmol	267 µmol/L	4.74 mmol/L	inhibited the weight increase of mice	little effect on liver function	1.42%	vesicular nephritis was observed	151.96 pg/mL			
CCc1oc2ccccc2c1C(=O)c1cc(Br)c(O)c(Br)c1 [benzbromarone]									206 µmol	408 µmol/L	increase the expression of OAT1
